“Also recorded” adds a separate entry of the source.
Experiments:
[1] = cynomolgus monkey, in vivo
[2] = system: C8161 human metastatic melanoma cells; assay: Experimental metastasis of C8161 cells, in vivo treatment (lung nodules, SCID mice); conditions: 10 mg/kg/48 hr from day 2, 5-7 weeks
Protocol: B. C8161 human metastatic melanoma cells were seeded into 100 mm tissue culture dishes at a density of 2×10^6 and incubated overnight at 37° C. in α-MBM medium supplemented with 10% FBS. The cells were trypsinized, collected by centrifugation and aliquots were removed from the suspension to determine the cell viability using trypan blue exclusion test. Approximately, 1×10^5 cells suspended in 0.1 ml of PBS were injected into the tail veins of 6-8 week old female SCID mice. Treatment with saline or 10 mg/kg/48 hr SEQ ID NO:1 or SEQ ID NO:1-SCR (scrambled control) was initiated after 2 days. Estimates of the number of lung nodules were made 5-7 weeks later, after excised lungs from individual mice were stained with picric acid dye solution (75% picric acid, 20% formaldehyde, 5% glacial acetic acid), see FIG. 12B. The bars represent the mean number of nodules per mouse with standard error.

[3] = system: R1 mRNA; assay: Northern blot of R1 mRNA in HT-29 cells; type: cell-based, human; conditions: 0.2 μM, four hours with Lipofectin, 16 hours recovery
Protocol: Total RNA was isolated using TRIzol reagent (GIBCO BRL) after cells were treated with 0.2 μM SEQ ID NO:1 for four hours in the presence of cationic lipid (Lipofectin reagent, GIBCO BRL), washed with PBS, and incubated for 16 hours to recover in normal medium containing 10% FBS. Northern blot analysis was performed as previously described (Hurta and Wright, 1995). RNA was subjected to electrophoresis through 1% formaldehyde agarose gels followed by transfer to nylon membranes. Blots were hybridized in the presence of a R1 fragment (McClarty et al, 1987). Glyceraldehyde-3-phosphate dehydrogenase (GAPDH) mRNA levels were simultaneously probed for RNA loading controls.

[4] = system: DU145 human prostatic cancer cells; assay: DU145 prostate tumor growth in SCID mice; type: in vivo
Protocol: DU145 human prostatic cancer cells (1×10^7 cells in 100 μl of PBS) were subcutaneously injected into the right flank of 6-7 week old male SCID mice. After the size of the tumors reached an approximate volume of 50 mm^3, 13 days post tumor cell injection, SEQ ID NO:1 was administered by bolus infusion into the tail vein every other day at 10 mg/kg. Control animals received saline alone for the same period. Treatments lasted for 30 days thereafter. Antitumor activities were estimated by the inhibition of tumor volume, which was measured with a caliper on nine different occasions over 30-day period. Each point represents mean tumor volume calculated from 5 animals per experimental group.
In both experiments, DU145 human prostatic cancer cells (1×10^7 cells in 100 μl of PBS) were subcutaneously injected into the right flank of 6-7 weeks old male SCID mice. After the size of tumor reached an approximate volume of 50 mm^3, 13 (upper panel) or 11 (lower panel) days post tumor cell injection, SEQ ID NO:1 was administered by bolus infusion into the tail vein every other day at 10 mg/kg 15 times (upper panel) or 14 times (lower panel), respectively. Control animals received saline alone for the same period. Antitumor effect of SEQ ID NO:1 was further compared to that of mitoxantrone (novantrone®) alone or in combination. Mitoxantrone was administered intravenously once at the beginning of the treatments at a dose of 2 mg/kg (upper panel) or once a week for four weeks at a reduced dose of 0.8 mg/kg (lower panel). All treatments were stopped at day 42 (upper panel) or 38 (lower panel), respectively. A day after the last treatment, tumors were excised from the animals and their weights were measured.

[5] = system: Hep G2 (liver); assay: Colony forming ability, Hep G2; type: cell-based, human; conditions: 0.2 μM antisense oligonucleotide/lipofectin, 4 hours
Protocol: The effect of SEQ ID NO:1 on the colony forming ability were evaluated in the following human tumor cell lines:
Tumor cells were washed in 5 ml of phosphate buffered saline, pH 7.2, prior to 0.2 μM antisense oligonucleotide/lipofectin treatment for 4 hours. The medium was removed and the cells were gently washed with 5 ml of growth medium. The cells were then cultured in growth medium for seven to ten days. Surviving colonies were visualized by methylene blue staining and colonies of 50 or more cells were scored (Choy et al., 1988 and Huang and Wright, 1994). Results are summarized from 4 to 8 trials for each tumor cell line.

[6] = system: R1 mRNA; assay: Northern blot of R1 mRNA in A2058 human melanoma cells; type: cell-based; conditions: 0.2 μM, 4 hr with Lipofectin
Protocol: A2058 human melanoma cells, grown to subconfluency (70-80%), were treated with 0.2 μM of phosphorothioate antisense ODNs for 4 hr in the presence of cationic lipid (Lipofectin reagent, final concentration, 5 μg/ml, GIBCO BRL) and Opti-MEM (GIBCO BRL). Cells were washed once with PBS and incubated for 16 hr in α-MEM medium (GIBCO BRL) containing 10% FBS. Total RNA was prepared in TRIzol reagent (GIBCO BRL) and northern blot analysis was performed as previously described (Hurta and Wright, J. Cell. Biochem. 57: 543-56, 1995) with some modifications. RNA prepared from cells treated with lipofectin alone (Control), SEQ ID NO:1 and scrambled control analogue (SEQ ID NO:1 Scr) were subjected to electrophoresis through 1% formaldehyde agarose gels followed by transfer to nylon membrane. The blots were hybridized with ^32P-labeled probes that detect R1 mRNA, 28S rRNA, 18S rRNA, thioredoxin mRNA, […], GAPDH mRNA, thioredoxin reductase mRNA, ribosomal protein S9 mRNA, RNase MRP RNA, RNase P RNA and R2 mRNA.

[7] = cynomolgus monkey, in vivo; remark: listed apart in the source

In the case of “5′-CTCTAGCGTCTTAAAGCCGA-3′ (CTCTAGCGTCTTAAAGCCGA; chemistry not given here) [SEQ ID NO:1]”, the “Cmax and AUC estimates versus dose” value [1] is reported as “proportional with the administered dose”, the “mean Cl, high dose group compared to low dose group” value [1] is reported as “slightly increased mean Cl value” and the “mean elimination t1/2, high dose group compared to low dose group” value [1] is reported as “significantly larger mean elimination t1/2”. For the same substance, the “sex differences in pharmacokinetics” value [1] was “no clear observed sex differences”, the “number of lung nodules” value [2] was “no visible lung nodules” and the “R1 mRNA level” value [3] was “specifically decreases R1 mRNA; also recorded: significant decrease; also recorded: decreased R1 mRNA levels”. The “inhibition of tumor volume” value ([4]; SCID mice, 10 mg/kg i.v. every other day, 30 days, vs saline, 10 mg/kg) was “strong inhibitory effects”, the “tumor weight / tumor growth” value ([4]; upper panel FIG. 2, SEQ ID NO:1 10 mg/kg every other day 15 times, mitoxantrone 2 mg/kg i.v. once, vs saline) was “significant delay of tumor growth” and the “delay in tumor growth compared with mitoxantrone alone” value ([4]; upper panel FIG. 2, mitoxantrone 2 mg/kg once) was “superior to the inhibitory effects observed with mitoxantrone alone”. For the same substance, the “inhibition in colony forming ability” value [5] was “greater than 60%”, the “R1 mRNA expression” value [6] was “significant decrease; also recorded: significantly decrease expression of R1mRNA” and the “clinical parameters in mid and low dose animals” value [7] was “Transient changes”. The “complement split product Bb” value [7] was “appeared to increase” and the “activated partial thromboplastin time (APTT)” value ([7]; 40 mg/kg/day) was “reversible increase”.
